Assay results reported in ChEMBL document CHEMBL3991601, “The target landscape of clinical kinase drugs” (Science, 2017).
Active and inactive are the calls of the source. For most assays here, no stated cut-off is given here; in the data, actives have a measured Kd and inactives only a lower limit.

The molecules below were run against Casein kinase I isoform delta (Homo sapiens, UniProt P48730).
Chain of Casein kinase I isoform delta (P48730 whole entry, canonical isoform): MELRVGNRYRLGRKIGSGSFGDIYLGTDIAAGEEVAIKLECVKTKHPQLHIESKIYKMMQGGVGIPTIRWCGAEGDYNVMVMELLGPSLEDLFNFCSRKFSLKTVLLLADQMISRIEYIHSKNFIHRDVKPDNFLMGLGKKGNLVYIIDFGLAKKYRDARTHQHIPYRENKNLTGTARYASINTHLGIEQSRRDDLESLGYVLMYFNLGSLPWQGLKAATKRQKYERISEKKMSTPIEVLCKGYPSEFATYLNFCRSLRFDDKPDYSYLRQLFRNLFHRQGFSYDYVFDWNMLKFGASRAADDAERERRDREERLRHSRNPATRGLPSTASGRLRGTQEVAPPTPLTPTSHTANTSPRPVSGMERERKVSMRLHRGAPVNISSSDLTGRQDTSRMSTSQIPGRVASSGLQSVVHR

Row | SMILES | Kd
1 | O=C1NC(=O)/C(=C/c2ccc3nccc(-c4ccncc4)c3c2)S1 [GSK-1059615] | 21.5 µM (active)
2 | Cn1cc(-c2ccc3nnc(C(F)(F)c4ccc5ncccc5c4)n3n2)cn1 [JNJ-38877605] | > 30 µM (inactive)
3 | OCCn1cc(-c2cnc3nnn(Cc4ccc5ncccc5c4)c3n2)cn1 [PF-04217903] | > 30 µM (inactive)
4 | COc1cc(OC)c(/C=C/S(=O)(=O)Cc2ccc(OC)c(NCC(=O)O)c2)c(OC)c1 [RIGOSERTIB] | > 30 µM (inactive)

The molecules below were run against Serine/threonine-protein kinase N3 (Homo sapiens, UniProt Q6P5Z2).
Chain of Serine/threonine-protein kinase N3 (Q6P5Z2 whole entry): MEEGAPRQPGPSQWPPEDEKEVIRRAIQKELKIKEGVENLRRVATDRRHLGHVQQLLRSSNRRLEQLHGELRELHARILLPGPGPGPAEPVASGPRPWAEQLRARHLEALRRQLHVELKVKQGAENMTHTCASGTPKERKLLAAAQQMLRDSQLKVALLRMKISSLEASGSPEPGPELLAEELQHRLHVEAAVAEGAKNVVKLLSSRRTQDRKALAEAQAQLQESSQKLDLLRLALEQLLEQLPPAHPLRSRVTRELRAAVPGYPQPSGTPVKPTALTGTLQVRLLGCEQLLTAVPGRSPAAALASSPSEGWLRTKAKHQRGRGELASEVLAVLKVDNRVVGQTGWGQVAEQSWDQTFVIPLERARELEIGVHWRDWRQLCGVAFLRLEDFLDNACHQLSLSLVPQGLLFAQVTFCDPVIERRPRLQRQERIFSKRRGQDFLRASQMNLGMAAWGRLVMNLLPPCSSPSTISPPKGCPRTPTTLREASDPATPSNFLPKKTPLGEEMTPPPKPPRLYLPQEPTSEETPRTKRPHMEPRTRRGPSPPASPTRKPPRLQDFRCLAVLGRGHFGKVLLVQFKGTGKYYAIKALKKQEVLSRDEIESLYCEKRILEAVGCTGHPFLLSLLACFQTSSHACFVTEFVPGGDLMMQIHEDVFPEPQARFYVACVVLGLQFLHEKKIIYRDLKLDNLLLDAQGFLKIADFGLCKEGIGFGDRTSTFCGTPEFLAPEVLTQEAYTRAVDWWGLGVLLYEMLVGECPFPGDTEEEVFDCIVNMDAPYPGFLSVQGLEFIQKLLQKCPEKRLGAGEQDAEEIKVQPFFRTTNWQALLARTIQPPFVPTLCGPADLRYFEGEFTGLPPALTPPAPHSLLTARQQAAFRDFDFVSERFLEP

Row | SMILES | Kd
5 | Cn1cc(-c2ccc3nnc(C(F)(F)c4ccc5ncccc5c4)n3n2)cn1 [JNJ-38877605] | > 30 µM (inactive)
6 | OCCn1cc(-c2cnc3nnn(Cc4ccc5ncccc5c4)c3n2)cn1 [PF-04217903] | > 30 µM (inactive)
7 | COc1cc(OC)c(/C=C/S(=O)(=O)Cc2ccc(OC)c(NCC(=O)O)c2)c(OC)c1 [RIGOSERTIB] | > 30 µM (inactive)

What follows are molecules tested against cAMP-dependent protein kinase catalytic subunit alpha (Homo sapiens, UniProt P17612).

Row | SMILES | Kd
8 | O=C1NC(=O)/C(=C/c2ccc3nccc(-c4ccncc4)c3c2)S1 [GSK-1059615] | > 30 µM (inactive)
9 | Cn1cc(-c2ccc3nnc(C(F)(F)c4ccc5ncccc5c4)n3n2)cn1 [JNJ-38877605] | > 30 µM (inactive)
10 | COc1cc(OC)c(/C=C/S(=O)(=O)Cc2ccc(OC)c(NCC(=O)O)c2)c(OC)c1 [RIGOSERTIB] | > 30 µM (inactive)

Each molecule was assayed against Ribosomal protein S6 kinase alpha-5 (Homo sapiens, UniProt O75582).
Chain of Ribosomal protein S6 kinase alpha-5 (O75582 whole entry): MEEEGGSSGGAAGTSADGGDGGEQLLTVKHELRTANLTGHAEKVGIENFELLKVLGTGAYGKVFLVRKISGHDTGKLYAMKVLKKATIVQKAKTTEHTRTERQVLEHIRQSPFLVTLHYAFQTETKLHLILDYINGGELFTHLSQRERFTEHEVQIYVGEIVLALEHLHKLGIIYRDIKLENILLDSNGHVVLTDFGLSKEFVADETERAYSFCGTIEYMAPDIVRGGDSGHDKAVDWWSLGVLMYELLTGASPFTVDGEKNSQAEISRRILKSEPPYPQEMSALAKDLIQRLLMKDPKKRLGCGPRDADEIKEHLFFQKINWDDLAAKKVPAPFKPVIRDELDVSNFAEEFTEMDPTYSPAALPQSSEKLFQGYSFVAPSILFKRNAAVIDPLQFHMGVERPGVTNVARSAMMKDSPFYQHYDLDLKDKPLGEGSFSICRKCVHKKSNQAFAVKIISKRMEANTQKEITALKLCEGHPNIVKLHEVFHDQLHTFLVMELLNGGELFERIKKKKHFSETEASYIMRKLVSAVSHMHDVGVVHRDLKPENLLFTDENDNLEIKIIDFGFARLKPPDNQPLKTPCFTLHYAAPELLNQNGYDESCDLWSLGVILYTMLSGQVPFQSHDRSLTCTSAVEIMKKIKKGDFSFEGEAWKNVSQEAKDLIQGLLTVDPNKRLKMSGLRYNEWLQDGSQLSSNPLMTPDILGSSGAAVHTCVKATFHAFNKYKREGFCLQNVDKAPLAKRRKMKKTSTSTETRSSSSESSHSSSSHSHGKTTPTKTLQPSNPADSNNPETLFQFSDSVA

Row | SMILES | Kd
11 | O=C1NC(=O)/C(=C/c2ccc3nccc(-c4ccncc4)c3c2)S1 [GSK-1059615] | > 30 µM (inactive)
12 | Cn1cc(-c2ccc3nnc(C(F)(F)c4ccc5ncccc5c4)n3n2)cn1 [JNJ-38877605] | > 30 µM (inactive)
13 | OCCn1cc(-c2cnc3nnn(Cc4ccc5ncccc5c4)c3n2)cn1 [PF-04217903] | > 30 µM (inactive)
14 | COc1cc(OC)c(/C=C/S(=O)(=O)Cc2ccc(OC)c(NCC(=O)O)c2)c(OC)c1 [RIGOSERTIB] | > 30 µM (inactive)

These molecules were tested against T1, Serine/threonine-protein kinase Chk1 (Homo sapiens, UniProt O14757).
T1 sequence (O14757 whole entry): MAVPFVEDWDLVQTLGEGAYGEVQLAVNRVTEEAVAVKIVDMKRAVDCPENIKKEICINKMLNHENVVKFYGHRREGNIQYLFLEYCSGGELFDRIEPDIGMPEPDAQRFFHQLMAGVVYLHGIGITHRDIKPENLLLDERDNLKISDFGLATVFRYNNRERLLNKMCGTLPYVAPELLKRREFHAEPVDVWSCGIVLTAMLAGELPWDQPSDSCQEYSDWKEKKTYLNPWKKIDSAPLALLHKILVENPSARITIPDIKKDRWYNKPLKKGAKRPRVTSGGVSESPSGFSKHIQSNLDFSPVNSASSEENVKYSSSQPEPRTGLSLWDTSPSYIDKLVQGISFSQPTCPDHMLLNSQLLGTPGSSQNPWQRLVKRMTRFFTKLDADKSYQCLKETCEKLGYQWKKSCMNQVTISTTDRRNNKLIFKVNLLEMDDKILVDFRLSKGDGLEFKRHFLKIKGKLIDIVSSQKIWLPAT

Row | SMILES | Kd
15 | O=C1NC(=O)/C(=C/c2ccc3nccc(-c4ccncc4)c3c2)S1 [GSK-1059615] | > 30 µM (inactive)
16 | Cn1cc(-c2ccc3nnc(C(F)(F)c4ccc5ncccc5c4)n3n2)cn1 [JNJ-38877605] | > 30 µM (inactive)
17 | COc1cc(OC)c(/C=C/S(=O)(=O)Cc2ccc(OC)c(NCC(=O)O)c2)c(OC)c1 [RIGOSERTIB] | > 30 µM (inactive)

Each molecule was assayed against Serine/threonine-protein kinase ATR (Homo sapiens, UniProt Q13535).

Row | SMILES | Kd
18 | O=C1NC(=O)/C(=C/c2ccc3nccc(-c4ccncc4)c3c2)S1 [GSK-1059615] | > 30 µM (inactive)
19 | Cn1cc(-c2ccc3nnc(C(F)(F)c4ccc5ncccc5c4)n3n2)cn1 [JNJ-38877605] | > 30 µM (inactive)
20 | OCCn1cc(-c2cnc3nnn(Cc4ccc5ncccc5c4)c3n2)cn1 [PF-04217903] | > 30 µM (inactive)
21 | COc1cc(OC)c(/C=C/S(=O)(=O)Cc2ccc(OC)c(NCC(=O)O)c2)c(OC)c1 [RIGOSERTIB] | > 30 µM (inactive)

Each molecule was assayed against T2, Pyridoxal kinase (Homo sapiens, UniProt O00764).
T2 sequence (O00764 whole entry): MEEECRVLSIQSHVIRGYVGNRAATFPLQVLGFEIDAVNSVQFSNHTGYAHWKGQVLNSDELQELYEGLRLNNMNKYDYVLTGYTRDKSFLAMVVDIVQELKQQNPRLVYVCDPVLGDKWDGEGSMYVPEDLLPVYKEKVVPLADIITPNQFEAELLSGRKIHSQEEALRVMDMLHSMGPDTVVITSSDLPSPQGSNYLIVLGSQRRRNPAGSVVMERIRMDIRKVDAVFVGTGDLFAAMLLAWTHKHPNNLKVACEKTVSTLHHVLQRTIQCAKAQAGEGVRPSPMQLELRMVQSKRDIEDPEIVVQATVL

Row | SMILES | Kd
22 | O=C1NC(=O)/C(=C/c2ccc3nccc(-c4ccncc4)c3c2)S1 [GSK-1059615] | > 30 µM (inactive)
23 | Cn1cc(-c2ccc3nnc(C(F)(F)c4ccc5ncccc5c4)n3n2)cn1 [JNJ-38877605] | > 30 µM (inactive)
24 | OCCn1cc(-c2cnc3nnn(Cc4ccc5ncccc5c4)c3n2)cn1 [PF-04217903] | > 30 µM (inactive)
25 | COc1cc(OC)c(/C=C/S(=O)(=O)Cc2ccc(OC)c(NCC(=O)O)c2)c(OC)c1 [RIGOSERTIB] | > 30 µM (inactive)

These molecules were tested against Ribosomal protein S6 kinase alpha-3 (Homo sapiens, UniProt P51812).
Chain of Ribosomal protein S6 kinase alpha-3 (P51812 whole entry): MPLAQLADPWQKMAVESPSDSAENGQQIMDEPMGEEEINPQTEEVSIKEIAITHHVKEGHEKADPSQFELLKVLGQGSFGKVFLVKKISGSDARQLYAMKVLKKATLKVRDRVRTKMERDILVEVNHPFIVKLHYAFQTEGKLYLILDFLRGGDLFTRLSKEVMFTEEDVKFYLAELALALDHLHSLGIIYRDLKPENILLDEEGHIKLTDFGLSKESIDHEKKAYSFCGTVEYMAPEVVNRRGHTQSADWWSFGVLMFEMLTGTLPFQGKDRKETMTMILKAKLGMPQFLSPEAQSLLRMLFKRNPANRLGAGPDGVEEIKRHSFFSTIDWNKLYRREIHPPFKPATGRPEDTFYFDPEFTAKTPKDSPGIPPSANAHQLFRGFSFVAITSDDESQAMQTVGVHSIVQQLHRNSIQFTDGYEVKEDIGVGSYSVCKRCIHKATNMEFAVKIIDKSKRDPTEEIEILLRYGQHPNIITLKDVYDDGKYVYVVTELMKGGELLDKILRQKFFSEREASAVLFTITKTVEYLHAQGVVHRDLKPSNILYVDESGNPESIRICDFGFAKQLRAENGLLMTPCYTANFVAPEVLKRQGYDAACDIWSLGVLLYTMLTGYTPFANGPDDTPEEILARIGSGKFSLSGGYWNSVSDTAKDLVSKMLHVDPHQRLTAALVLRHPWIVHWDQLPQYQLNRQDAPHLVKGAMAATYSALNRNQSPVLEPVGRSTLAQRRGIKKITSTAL

Row | SMILES | Kd
26 | O=C1NC(=O)/C(=C/c2ccc3nccc(-c4ccncc4)c3c2)S1 [GSK-1059615] | > 30 µM (inactive)
27 | Cn1cc(-c2ccc3nnc(C(F)(F)c4ccc5ncccc5c4)n3n2)cn1 [JNJ-38877605] | > 30 µM (inactive)
28 | COc1cc(OC)c(/C=C/S(=O)(=O)Cc2ccc(OC)c(NCC(=O)O)c2)c(OC)c1 [RIGOSERTIB] | > 30 µM (inactive)

Each molecule was assayed against Serine/threonine-protein kinase Nek7 (Homo sapiens, UniProt Q8TDX7).
Chain of Serine/threonine-protein kinase Nek7 (Q8TDX7 whole entry): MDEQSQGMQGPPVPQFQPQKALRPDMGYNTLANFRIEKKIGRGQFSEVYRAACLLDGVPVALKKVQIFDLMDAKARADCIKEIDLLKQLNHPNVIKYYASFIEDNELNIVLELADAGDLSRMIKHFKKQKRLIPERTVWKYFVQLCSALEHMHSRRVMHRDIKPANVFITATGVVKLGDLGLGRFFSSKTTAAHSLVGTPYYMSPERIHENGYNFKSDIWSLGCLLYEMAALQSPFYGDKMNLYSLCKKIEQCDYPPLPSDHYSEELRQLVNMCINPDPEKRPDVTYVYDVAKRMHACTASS

Row | SMILES | Kd
29 | O=C1NC(=O)/C(=C/c2ccc3nccc(-c4ccncc4)c3c2)S1 [GSK-1059615] | > 30 µM (inactive)
30 | Cn1cc(-c2ccc3nnc(C(F)(F)c4ccc5ncccc5c4)n3n2)cn1 [JNJ-38877605] | > 30 µM (inactive)
31 | OCCn1cc(-c2cnc3nnn(Cc4ccc5ncccc5c4)c3n2)cn1 [PF-04217903] | > 30 µM (inactive)
32 | COc1cc(OC)c(/C=C/S(=O)(=O)Cc2ccc(OC)c(NCC(=O)O)c2)c(OC)c1 [RIGOSERTIB] | > 30 µM (inactive)

Each molecule was assayed against T3, Protein kinase C zeta type (Homo sapiens, UniProt Q05513).
T3 sequence (Q05513 whole entry): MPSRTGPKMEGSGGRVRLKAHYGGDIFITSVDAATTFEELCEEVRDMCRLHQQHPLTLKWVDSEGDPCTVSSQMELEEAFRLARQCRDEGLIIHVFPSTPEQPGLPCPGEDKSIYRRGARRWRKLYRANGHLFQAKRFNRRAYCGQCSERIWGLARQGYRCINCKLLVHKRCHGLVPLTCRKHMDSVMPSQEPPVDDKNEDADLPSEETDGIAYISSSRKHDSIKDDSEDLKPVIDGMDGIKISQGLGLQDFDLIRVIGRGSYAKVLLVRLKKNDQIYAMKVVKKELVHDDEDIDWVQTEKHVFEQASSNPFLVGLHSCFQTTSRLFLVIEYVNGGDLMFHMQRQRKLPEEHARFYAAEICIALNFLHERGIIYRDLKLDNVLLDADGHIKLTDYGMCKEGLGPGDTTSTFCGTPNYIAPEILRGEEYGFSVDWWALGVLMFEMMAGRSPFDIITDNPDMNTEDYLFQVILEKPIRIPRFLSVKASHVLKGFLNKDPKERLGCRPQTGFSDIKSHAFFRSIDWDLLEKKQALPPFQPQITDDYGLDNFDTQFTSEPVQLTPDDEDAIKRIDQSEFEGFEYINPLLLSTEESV

Row | SMILES | Kd
33 | O=C1NC(=O)/C(=C/c2ccc3nccc(-c4ccncc4)c3c2)S1 [GSK-1059615] | > 30 µM (inactive)
34 | Cn1cc(-c2ccc3nnc(C(F)(F)c4ccc5ncccc5c4)n3n2)cn1 [JNJ-38877605] | > 30 µM (inactive)
35 | OCCn1cc(-c2cnc3nnn(Cc4ccc5ncccc5c4)c3n2)cn1 [PF-04217903] | > 30 µM (inactive)
36 | COc1cc(OC)c(/C=C/S(=O)(=O)Cc2ccc(OC)c(NCC(=O)O)c2)c(OC)c1 [RIGOSERTIB] | > 30 µM (inactive)

Each molecule was assayed against Calcium/calmodulin-dependent protein kinase type II subunit gamma (Homo sapiens, UniProt Q13555).
Chain of Calcium/calmodulin-dependent protein kinase type II subunit gamma (Q13555 whole entry): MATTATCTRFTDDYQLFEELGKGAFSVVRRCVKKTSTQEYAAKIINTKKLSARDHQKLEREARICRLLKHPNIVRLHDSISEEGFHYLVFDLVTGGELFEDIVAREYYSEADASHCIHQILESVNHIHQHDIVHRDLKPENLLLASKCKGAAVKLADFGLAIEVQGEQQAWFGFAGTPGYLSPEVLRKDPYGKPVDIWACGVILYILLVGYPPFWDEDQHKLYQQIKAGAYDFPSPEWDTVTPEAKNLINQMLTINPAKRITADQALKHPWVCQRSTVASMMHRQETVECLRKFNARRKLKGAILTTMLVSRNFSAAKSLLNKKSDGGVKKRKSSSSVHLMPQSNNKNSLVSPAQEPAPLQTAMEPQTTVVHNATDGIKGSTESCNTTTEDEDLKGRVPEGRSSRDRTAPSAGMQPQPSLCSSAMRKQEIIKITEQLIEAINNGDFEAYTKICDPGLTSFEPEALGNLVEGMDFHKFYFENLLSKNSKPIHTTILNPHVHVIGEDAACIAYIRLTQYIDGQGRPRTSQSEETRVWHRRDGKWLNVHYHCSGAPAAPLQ

Row | SMILES | Kd
37 | O=C1NC(=O)/C(=C/c2ccc3nccc(-c4ccncc4)c3c2)S1 [GSK-1059615] | > 30 µM (inactive)
38 | Cn1cc(-c2ccc3nnc(C(F)(F)c4ccc5ncccc5c4)n3n2)cn1 [JNJ-38877605] | > 30 µM (inactive)
39 | OCCn1cc(-c2cnc3nnn(Cc4ccc5ncccc5c4)c3n2)cn1 [PF-04217903] | > 30 µM (inactive)
40 | COc1cc(OC)c(/C=C/S(=O)(=O)Cc2ccc(OC)c(NCC(=O)O)c2)c(OC)c1 [RIGOSERTIB] | > 30 µM (inactive)

What follows are molecules tested against Dual specificity protein kinase CLK1 (Homo sapiens, UniProt P49759).
Chain of Dual specificity protein kinase CLK1 (P49759 whole entry): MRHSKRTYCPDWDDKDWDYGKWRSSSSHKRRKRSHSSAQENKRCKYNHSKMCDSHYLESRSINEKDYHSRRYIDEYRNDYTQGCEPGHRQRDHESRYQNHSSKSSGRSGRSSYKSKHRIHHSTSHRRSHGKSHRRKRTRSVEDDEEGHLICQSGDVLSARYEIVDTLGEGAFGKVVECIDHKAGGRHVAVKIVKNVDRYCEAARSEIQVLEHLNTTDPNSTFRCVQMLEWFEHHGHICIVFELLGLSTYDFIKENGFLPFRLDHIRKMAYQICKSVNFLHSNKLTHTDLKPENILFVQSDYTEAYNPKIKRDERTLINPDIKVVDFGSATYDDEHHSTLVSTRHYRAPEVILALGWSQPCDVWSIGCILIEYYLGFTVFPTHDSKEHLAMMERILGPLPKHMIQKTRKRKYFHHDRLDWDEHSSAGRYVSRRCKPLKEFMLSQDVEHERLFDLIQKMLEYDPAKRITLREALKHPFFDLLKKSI

Row | SMILES | Kd
41 | O=C1NC(=O)/C(=C/c2ccc3nccc(-c4ccncc4)c3c2)S1 [GSK-1059615] | 0.025 µM (active)
42 | Cn1cc(-c2ccc3nnc(C(F)(F)c4ccc5ncccc5c4)n3n2)cn1 [JNJ-38877605] | > 30 µM (inactive)
43 | OCCn1cc(-c2cnc3nnn(Cc4ccc5ncccc5c4)c3n2)cn1 [PF-04217903] | > 30 µM (inactive)
44 | COc1cc(OC)c(/C=C/S(=O)(=O)Cc2ccc(OC)c(NCC(=O)O)c2)c(OC)c1 [RIGOSERTIB] | > 30 µM (inactive)
